Assay results: ChEMBL document CHEMBL1201862, “PubChem BioAssay data set” (2004)
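Briefly, cells in 96-well plates were exposed to five compound concentrations for 48 h, and endpoints were estimated by linear interpolation. GI50: concentration for 50% inhibition of growth.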 The source made the active and inactive calls. Cut-off read from the data, not from the text of the source: active = GI50 up to about 1.1 µM and inactive = higher.

What was measured:
Test in all cases: inhibition of tumour cell growth, NCI panel, 48 h
786-0 = tested on: 786-0
A498 = tested on: A498
A549 = tested on: A549
ACHN = tested on: ACHN
BT-549 = tested on: BT-549
CAKI-1 = tested on: CAKI-1
CCRF-CEM = tested on: CCRF-CEM
COLO 205 = tested on: COLO 205
DU-145 = tested on: DU-145
EKVX = tested on: EKVX
HCC 2998 = tested on: HCC 2998
HCT-116 = tested on: HCT-116
HCT-15 = tested on: HCT-15
HL-60 = tested on: HL-60
HOP-62 = tested on: HOP-62
HOP-92 = tested on: HOP-92
HT-29 = tested on: HT-29
Hs-578T = tested on: Hs-578T
IGROV-1 = tested on: IGROV-1
K562 = tested on: K562
KM12 = tested on: KM12
LOX IMVI = tested on: LOX IMVI
M14 = tested on: M14
MCF7 = tested on: MCF7
MDA-MB-231 = tested on: MDA-MB-231
MDA-MB-435 = tested on: MDA-MB-435
MDA-N = tested on: MDA-N
MOLT-4 = tested on: MOLT-4
Malme-3M = tested on: Malme-3M
NCI-H226 = tested on: NCI-H226
NCI-H23 = tested on: NCI-H23
NCI-H460 = tested on: NCI-H460
NCI/ADR-RES = tested on: NCI/ADR-RES
OVCAR-3 = tested on: OVCAR-3
OVCAR-4 = tested on: OVCAR-4
OVCAR-5 = tested on: OVCAR-5
OVCAR-8 = tested on: OVCAR-8
PC-3 = tested on: PC-3
RPMI-8226 = tested on: RPMI-8226
RXF 393 = tested on: RXF 393
SF-268 = tested on: SF-268
SF-295 = tested on: SF-295
SF-539 = tested on: SF-539
SK-MEL-28 = tested on: SK-MEL-28
SK-MEL-2 = tested on: SK-MEL-2
SK-MEL-5 = tested on: SK-MEL-5
SK-OV-3 = tested on: SK-OV-3
SN12C = tested on: SN12C
SNB-19 = tested on: SNB-19
SNB-75 = tested on: SNB-75
SR = tested on: SR
SW-620 = tested on: SW-620
T47D = tested on: T47D
TK-10 = tested on: TK-10
UACC-257 = tested on: UACC-257
UACC-62 = tested on: UACC-62
UO-31 = tested on: UO-31
NCI-H522 = tested on: NCI-H522
U-251 = tested on: U-251

Compound: O=C1OCC2=C1C(c1ccc(Cl)cc1)c1cc3c(cc1O2)OCO3 (centres undefined)
- GI50 (786-0): 4.65 µM (inactive)
- GI50 (A498): 8.24 µM (inactive)
- GI50 (A549): 4.79 µM (inactive)
- GI50 (ACHN): 6.21 µM (inactive)
- GI50 (BT-549): 3.37 µM (inactive)
- GI50 (CAKI-1): 1.66 µM (inactive)
- GI50 (CCRF-CEM): 2.52 µM (inactive)
- GI50 (COLO 205): 5.55 µM (inactive)
- GI50 (DU-145): 4.15 µM (inactive)
- GI50 (EKVX): 21 µM (inactive)
- GI50 (HCC 2998): 4.1 µM (inactive)
- GI50 (HCT-116): 3 µM (inactive)
- GI50 (HCT-15): 2.83 µM
- GI50 (HL-60): 2.21 µM (inactive)
- GI50 (HOP-62): 3.4 µM (inactive)
- GI50 (HOP-92): > 35.8 µM (inactive)
- GI50 (HT-29): 3.72 µM (inactive)
- GI50 (Hs-578T): 4.15 µM (inactive)
- GI50 (IGROV-1): 3.56 µM (inactive)
- GI50 (K562): 1.82 µM (inactive)
- GI50 (KM12): 3.45 µM (inactive)
- GI50 (LOX IMVI): 3.66 µM (inactive)
- GI50 (M14): 4.08 µM (inactive)
- GI50 (MCF7): 3.16 µM (inactive)
- GI50 (MDA-MB-231): > 24.3 µM (inactive)
- GI50 (MDA-MB-435): 0.778 µM (active)
- GI50 (MDA-N): 0.902 µM (active)
- GI50 (MOLT-4): 2.74 µM (inactive)
- GI50 (Malme-3M): 6.41 µM (inactive)
- GI50 (NCI-H226): > 100 µM (inactive)
- GI50 (NCI-H23): 6.9 µM (inactive)
- GI50 (NCI-H460): 3.34 µM (inactive)
- GI50 (NCI/ADR-RES): 2.64 µM (inactive)
- GI50 (OVCAR-3): 3.72 µM (inactive)
- GI50 (OVCAR-4): 84.9 µM (inactive)
- GI50 (OVCAR-5): > 23.9 µM (inactive)
- GI50 (OVCAR-8): 9.12 µM (inactive)
- GI50 (PC-3): 3.62 µM (inactive)
- GI50 (RPMI-8226): 3.46 µM (inactive)
- GI50 (RXF 393): 4.06 µM (inactive)
- GI50 (SF-268): 7.43 µM (inactive)
- GI50 (SF-295): 2.88 µM (inactive)
- GI50 (SF-539): 2.69 µM (inactive)
- GI50 (SK-MEL-28): 6.21 µM (inactive)
- GI50 (SK-MEL-2): 3.2 µM (inactive)
- GI50 (SK-MEL-5): 3.76 µM (inactive)
- GI50 (SK-OV-3): 2.83 µM (inactive)
- GI50 (SN12C): 10.5 µM (inactive)
- GI50 (SNB-19): 6.97 µM (inactive)
- GI50 (SNB-75): 2.49 µM (inactive)
- GI50 (SR): 3.03 µM (inactive)
- GI50 (SW-620): 2.88 µM (inactive)
- GI50 (T47D): 4.3 µM (inactive)
- GI50 (TK-10): 8.05 µM (inactive)
- GI50 (UACC-257): > 21.8 µM (inactive)
- GI50 (UACC-62): 4.36 µM (inactive)
- GI50 (UO-31): 10.1 µM (inactive)

Compound: COC1=C(N2CC2)C(=O)c2nc3n(c2C1=O)CCC3
- GI50 (786-0): 0.321 µM (active)
- GI50 (A498): 1.41 µM (inactive)
- GI50 (A549): 1.98 µM (inactive)
- GI50 (ACHN): 0.275 µM (active)
- GI50 (BT-549): 1.15 µM (inactive)
- GI50 (CCRF-CEM): 0.265 µM (active)
- GI50 (COLO 205): 0.656 µM (active)
- GI50 (DU-145): 0.372 µM (active)
- GI50 (HCC 2998): 0.679 µM (active)
- GI50 (HCT-116): 0.434 µM (active)
- GI50 (HCT-15): 0.368 µM
- GI50 (HL-60): 0.21 µM (active)
- GI50 (HOP-62): 0.953 µM (active)
- GI50 (HOP-92): 3.33 µM (inactive)
- GI50 (HT-29): 0.352 µM (active)
- GI50 (Hs-578T): 5.09 µM (inactive)
- GI50 (IGROV-1): 1.43 µM (inactive)
- GI50 (K562): 0.271 µM (active)
- GI50 (KM12): 1.37 µM (inactive)
- GI50 (LOX IMVI): 0.406 µM (active)
- GI50 (M14): 0.22 µM (active)
- GI50 (MCF7): 0.532 µM (active)
- GI50 (MDA-MB-231): 2.72 µM (inactive)
- GI50 (MDA-MB-435): 1.45 µM (inactive)
- GI50 (MDA-N): 1.38 µM (inactive)
- GI50 (MOLT-4): 0.306 µM (active)
- GI50 (Malme-3M): 0.305 µM (active)
- GI50 (NCI-H226): 1.87 µM (inactive)
- GI50 (NCI-H23): 0.497 µM (active)
- GI50 (NCI-H460): 0.45 µM (active)
- GI50 (NCI-H522): 0.147 µM (active)
- GI50 (NCI/ADR-RES): 0.453 µM (active)
- GI50 (OVCAR-3): 0.393 µM (active)
- GI50 (OVCAR-4): 0.22 µM (active)
- GI50 (OVCAR-5): 1.26 µM (inactive)
- GI50 (OVCAR-8): 1.35 µM (inactive)
- GI50 (PC-3): 0.695 µM (active)
- GI50 (RPMI-8226): 0.0489 µM (active)
- GI50 (RXF 393): 0.0743 µM (active)
- GI50 (SF-268): 1.6 µM (inactive)
- GI50 (SF-295): 0.815 µM (active)
- GI50 (SF-539): 2.04 µM (inactive)
- GI50 (SK-MEL-28): 4.01 µM (inactive)
- GI50 (SK-MEL-5): 1.29 µM (inactive)
- GI50 (SK-OV-3): 1.18 µM (inactive)
- GI50 (SN12C): 1.3 µM (inactive)
- GI50 (SNB-19): 1.39 µM (inactive)
- GI50 (SNB-75): 1.71 µM (inactive)
- GI50 (SR): 0.357 µM (active)
- GI50 (SW-620): 0.242 µM (active)
- GI50 (T47D): 1.79 µM (inactive)
- GI50 (TK-10): 3.23 µM (inactive)
- GI50 (U-251): 1.4 µM (inactive)
- GI50 (UACC-62): 1.54 µM (inactive)
- GI50 (UO-31): 0.224 µM (active)

Compound: CC(=O)O[C@H]1C[C@H]2C(=S)Nc3ccccc3C(=S)N2C1
- GI50 (786-0): > 100 µM (inactive)
- GI50 (A498): > 100 µM (inactive)
- GI50 (A549): > 100 µM (inactive)
- GI50 (ACHN): > 100 µM (inactive)
- GI50 (BT-549): > 100 µM (inactive)
- GI50 (CAKI-1): > 100 µM (inactive)
- GI50 (CCRF-CEM): > 100 µM (inactive)
- GI50 (COLO 205): > 100 µM (inactive)
- GI50 (DU-145): > 100 µM (inactive)
- GI50 (EKVX): > 100 µM (inactive)
- GI50 (HCC 2998): > 100 µM (inactive)
- GI50 (HCT-116): > 100 µM (inactive)
- GI50 (HCT-15): > 100 µM
- GI50 (HOP-62): > 100 µM (inactive)
- GI50 (HOP-92): > 100 µM (inactive)
- GI50 (HT-29): > 100 µM (inactive)
- GI50 (Hs-578T): > 100 µM (inactive)
- GI50 (IGROV-1): > 100 µM (inactive)
- GI50 (K562): > 100 µM (inactive)
- GI50 (KM12): > 100 µM (inactive)
- GI50 (LOX IMVI): > 100 µM (inactive)
- GI50 (M14): > 100 µM (inactive)
- GI50 (MCF7): > 100 µM (inactive)
- GI50 (MDA-MB-231): > 100 µM (inactive)
- GI50 (MDA-MB-435): > 100 µM (inactive)
- GI50 (MDA-N): > 100 µM (inactive)
- GI50 (MOLT-4): > 100 µM (inactive)
- GI50 (Malme-3M): > 100 µM (inactive)
- GI50 (NCI-H226): > 100 µM (inactive)
- GI50 (NCI-H23): > 100 µM (inactive)
- GI50 (NCI-H460): > 100 µM (inactive)
- GI50 (NCI-H522): > 100 µM (inactive)
- GI50 (NCI/ADR-RES): > 100 µM (inactive)
- GI50 (OVCAR-3): > 100 µM (inactive)
- GI50 (OVCAR-4): > 100 µM (inactive)
- GI50 (OVCAR-5): > 100 µM (inactive)
- GI50 (OVCAR-8): > 100 µM (inactive)
- GI50 (PC-3): > 100 µM (inactive)
- GI50 (RPMI-8226): > 100 µM (inactive)
- GI50 (RXF 393): > 100 µM (inactive)
- GI50 (SF-268): > 100 µM (inactive)
- GI50 (SF-295): > 100 µM (inactive)
- GI50 (SK-MEL-28): > 100 µM (inactive)
- GI50 (SK-MEL-2): > 100 µM (inactive)
- GI50 (SK-MEL-5): > 100 µM (inactive)
- GI50 (SK-OV-3): > 100 µM (inactive)
- GI50 (SN12C): > 100 µM (inactive)
- GI50 (SNB-19): > 100 µM (inactive)
- GI50 (SNB-75): 88.3 µM (inactive)
- GI50 (SR): > 100 µM (inactive)
- GI50 (SW-620): > 100 µM (inactive)
- GI50 (T47D): > 100 µM (inactive)
- GI50 (TK-10): > 100 µM (inactive)
- GI50 (U-251): > 100 µM (inactive)
- GI50 (UACC-257): > 100 µM (inactive)
- GI50 (UACC-62): > 100 µM (inactive)
- GI50 (UO-31): > 100 µM (inactive)
